The text below walks through data of patent US8101158B1, “Methods for treating cerebrovascular disease comprising administering an agent that inhibits prokineticin receptor activity” (The Regents of the University of California, priority 2007, dated 2012).

For series [1], the target named is T1, PKR2 (Homo sapiens, UniProt Q8NFJ6).
T1 construct: expressed in transfected cells
Put plainly: Antagonism of PK2-induced calcium influx (luminescence) in CHO cells stably expressing PKR2. It is filed as cell-based. Particulars: luminescence (RLU), read-out: inhibition constant (Ki) for blocking activation of PKR2 by PK2. How it is done: FIG. 4 is a graphical representation showing the antagonistic effect of Compound I in Chinese Hamster Ovary cells that stably express PKR2. Dose-dependent response of PKR2 activation by PK2 in the presence of different concentrations of Compound I was measured with a luminometer. RLU is an index for calcium influx measurement for this luminescence-based assay. The dose-dependent calcium influx activated by PK2 was antagonized by Compound I. The inhibition constant obtained from this experiment was approximately 15 nM.
(§1) Via custom synthesis, 10 grams of one of the morpholine carboximide derivatives was obtained, with chemical name of (±)-4-Benzyl-N-(3,4-dihydro-2H-1,5-benzodioxepin-7-ylmethyl)-N-isobutylmorpholine-2-carboxamide, compound I (FIG. 5). Compound I was tested using the in vitro ischemia model. […] We utilized compound I as a parent compound to test the potential therapeutic effect of blocking PKR2 in cerebral ischemia models.

Series [2] in a line: Pharmacokinetic study, brain concentration. It is filed as in vivo. Particulars: intraperitoneal injection of 60 mg/kg in rats. How it is done:
as §1

In series [3] the test system is brain infarct in experimental stroke model. Put plainly: Experimental stroke model, infarct volume after i.p. compound I. It is filed as in vivo, rats. Particulars: 50 mg/kg i.p., 30 minutes pre-ischemia; n=5, p<0.05; listed as compound I. How it is done:
TTC staining and infarct quantification was performed as follows. 24 hours after reperfusion, rats were perfused with ice cold PBS and the brain was sectioned into 2 mm thickness. Brain sections were stained in 2,3,5 triphenyl tetrazolium chloride (TTC) solution for 15 minutes or until infarct was visible, followed by fixation with 4% PFA overnight. Next day the brain sections were aligned from rostral to caudal and brain sections were scanned. Infarct size and volume was quantitated using the software Image J. Infarct and cortex was outlined and measured using Image J. Percent infarct represents infarct area over entire cortex area. Percent volume was measured by multiplying the area by the section thickness (2 mm). Compound I reduced infarct size in ischemia models. The effect of compound I in experimental stroke models was tested. […] Compound I-treated rats had smaller infarct at almost every level.

For series [4], the system named is PK2 mRNA. Put plainly: PK2 mRNA in situ hybridization after pilocarpine-induced seizure. It is filed as in vivo, mice. Particulars: CeA; for PK2 mRNA induction after pilocarpine in diazepam-pretreated animals: CA3 and dentate gyrus, diazepam prior to pilocarpine. The procedure:
(§2) All injections were administered through intraperitoneal injections (i.p.) Pilocarpine: to reduce muscarinic peripheral effects, all animals injected with pilocarpine were given 2 mg/kg of methylscopolamine (dissolved in saline 0.4 mg/ml) 30 minutes prior to injection. Pilocarpine-induced seizure was then initiated by injecting littermate mice (C57BL-6 or mix C57BL-6 with CD1) i.p. with (200 or 400 mg/kg) pilocarpine, respectively. Thereafter, animals were then assessed for seizure, as describe above, and sacrificed according to the following time course (30, 1 hr, 3 hrs, 6 hrs, 12 hrs, 36 hrs, 72 hrs). For groups within the pentylenetetrazol (metrazol, PTZ), mice were administered 75 mg/kg PTZ and subsequently monitored for 20 minutes. PTZ kindling were accomplished by administering 45 mg/kg PTZ every other day for 14 days. Animals that reach S5 on the first day were not included in the experiments. Each animal was injected and monitored for S5 seizure. Once S5 is reached, the animal was considered kindled, and was taken out of the injection regimen.
In situ hybridization was done according to Cheng et al 2001. Antisense and sense riboprobes containing the 3′ UTR of mouse PK2 (GenBank accession number AF487279; residues 1147-2211), PKR1 (3′ UTR) and PKR2 (3′ UTR) were generated. […] Sections were then cut at 20-μm and processed for in situ as described by Winzer-Serhan et al. mRNA distributions from autoradiograms and emulsion-dipped sections were then analyzed and quantified with a system called MCID (Imaging Research). Calibration curve was generated by optical density versus radioactivity (disintegrations per minute (d.p.m.) per mg tissue wet weight) using 14 C standards. […]
A time course analysis for PK2 mRNA induction and upregulation in the pilocarpine-induced seizure model was performed. A total of seven time points (30 minutes, 1 hr, 3 hrs, 6 hrs, 12 hrs, 36 hrs, and 72 hrs post pilocarpine injection) were analyzed. […]

For series [5], the system named is PKR2 mRNA. As to the kind of experiment: PKR2 mRNA in situ hybridization after pilocarpine-induced seizure. It is filed as in vivo, mice. How it is done:
as §2, with “Animals that reach S5 on the first day were not included in the experiments.” left out, “Once S5 is reached, the animal was considered kindled, and was taken out of the injection regimen.” left out
(§3) In situ hybridization was done according to Cheng et al 2001. […] Sections were then cut at 20-μm and processed for in situ as described by Winzer-Serhan et al. mRNA distributions from autoradiograms and emulsion-dipped sections were then analyzed and quantified with a system called MCID (Imaging Research). Calibration curve was generated by optical density versus radioactivity (disintegrations per minute (d.p.m.) per mg tissue wet weight) using 14 C standards. […]

Series [6] deals with PK2 mRNA. Put plainly: PK2 mRNA in situ hybridization in PTZ seizure model. The class given is in vivo, mice. Particulars: data not shown. How it is done:
as §2, with “Animals that reach S5 on the first day were not included in the experiments.” left out, “Once S5 is reached, the animal was considered kindled, and was taken out of the injection regimen.” left out
as §3

Series [7] relates to brain infarct after distal MCAO. As to the kind of experiment: Distal MCAO experimental stroke with ICV delivery of PK2, TTC infarct quantitation. It is filed as in vivo, rats. Particulars: PK2 0.3 nmol ICV within one hour after reperfusion, 24 hr, n=5, p<0.001. The procedure:
Distal Middle Cerebral Artery Occlusion (dMCAO) was performed in the PK2 intracerebroventricular […] infusion study. Anesthesia induced by 5% isoflurane and maintained by 2-3% isoflurane. A ventral midline incision was made, and the two CCAs were isolated. […] were placed around the CCAs, and the animal was placed on its right side. A 2-cm vertical scalp incision was made midway between the left eye and ear. The temporalis muscle was bisected and a 2-mm burr hole was made at the junction of the zygomatic arch and squamous bone to expose the distal MCA. The dura was cut and the distal MCA was permanently electro-cauterized. The CCA were then occluded with clips for 1 hour, and the animals were sacrificed and perfused after 24 hr. PK2 (0.3 nmol) was stereotaxically infused prior or post-ischemia. […] Body temperature, ECG, and respiration rate were monitored every 15 minutes and kept in physiological ranges. […] TTC staining and infarct quantification was performed as follows. […] Infarct size and volume was quantitated using the software Image J. Infarct and cortex was outlined and measured using Image J. Percent infarct represents infarct area over entire cortex area. Percent volume was measured by multiplying the area by the section thickness (2 mm). […] FIGS. 2B and C are graphs showing quantitation of infarct volume. […]

The subject of series [8] is GABA (α1β1γ2) currents in oocytes with PKR2. As to the kind of experiment: GABA-evoked currents in Xenopus oocytes, two-electrode voltage clamp. The class given is cell-based, Xenopus laevis. Particulars: GABA 10 uM; PK2 10 nM-30 nM; over 60 min; holding potential -70 mV. The procedure:
FIG. 13 is a series of graphical representations showing PK2-induced reduction of GABA (α1β1γ2) currents. […] GABA (10 uM) evoked GABA currents without PK2 show no appreciable reduction over a 70 min course. Addition of PK2 (10 nM-30 nM) decreased GABA-evoked current over a period of 60 min. FIG. 13B is a graphical representation showing the average percent reduction of normalized GABA-evoked currents after addition of PK2. […] One-way Anova with post-Dunnet correction indicates (p<0.05) across all time points when compared to normalized base.
Multiple studies have found a complex system of inhibition, disinhibition, and various physiological consequences, depending on the circuitry and subtypes involved; all of which have important consequences in epileptogenesis. The role of PK2 and GABAA receptor, especially with the αβγ-GABAA which are found in the amygdale was investigated. […]. To do this study, a mixture of RNA containing α1β1γ2S with or without PKR2 was injected into Xenopus oocytes. GABA currents were then measured using the two-electrode voltage clamp with a holding potential of −70 mV, 4-6 days post injection. Repeated exposure (every 10 mins) with GABA (10 μM) to Xenopus oocytes (αβγ-GABAA or […] containing) induced a reproducible and stable current over a long-term recording (>1 hr).
In general terms: Two-electrode voltage clamp is typically applied to oocytes expressing channels or transporters.

Series [9] concerns locomotor running wheel activity. Particulars: PK2 0.3 nmol; cited from earlier work.

Entries after “also recorded” stand apart in the source; their conditions may differ.

T1 sequence (Q8NFJ6 whole entry): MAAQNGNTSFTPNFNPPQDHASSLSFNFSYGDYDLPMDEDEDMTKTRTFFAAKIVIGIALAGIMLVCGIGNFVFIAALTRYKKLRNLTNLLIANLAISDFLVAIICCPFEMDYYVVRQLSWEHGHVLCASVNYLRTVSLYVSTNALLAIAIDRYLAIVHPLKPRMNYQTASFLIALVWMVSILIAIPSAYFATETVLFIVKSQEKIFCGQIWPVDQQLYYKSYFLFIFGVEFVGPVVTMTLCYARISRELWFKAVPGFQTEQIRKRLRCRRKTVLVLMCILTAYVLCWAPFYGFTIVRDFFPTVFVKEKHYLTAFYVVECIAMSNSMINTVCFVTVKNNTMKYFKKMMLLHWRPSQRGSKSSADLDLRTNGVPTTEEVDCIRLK

Broadly, the Ki is a dissociation constant, usually derived from enzyme kinetics or from competition with a known ligand. `CC(C)CN(Cc1ccc2c(c1)OCCCO2)C(=O)C1CN(Cc2ccccc2)CCO1` (racemic) [Compound I, (±)-4-Benzyl-N-(3,4-dihydro-2H-1,5-benzodioxepin-7-ylmethyl)-N-isobutylmorpholine-2-carboxamide]: the Ki in series [1] was approximately 15 nM. The brain concentration entry in series [2] is “significant brain concentration”. Moreover, the “infarct volume versus vehicle PEG400” value in [3] was “significantly reduced infarct volume”.
In the case of `CN1C(=O)CN=C(c2ccccc2)c2cc(Cl)ccc21` [Diazepam, diazepam], the entries for the “PK2 mRNA induction after pilocarpine in diazepam-pretreated animals” value in series [4] and in series [4] (listed as diazepam) were “eliminated induction; also recorded: blocks induction of PK2” and “completely abolished”, respectively. Besides, the “PKR2 mRNA induction after pilocarpine with diazepam” value in series [5] (seizure activity blocked with diazepam) is “eliminated induction”.
Consider `C1CCc2nnnn2CC1` [PTZ, Pentylenetetrazol], for which the “PK2 mRNA induction in PTZ seizure model” value in series [6] was “only a modest upregulation of PK2 mRNA at the medial nucleus of the amygdale”.
For the molecule `CC[C@@H]1C(=O)OC[C@@H]1Cc1cncn1C` [pilocarpine], the “peak PK2 mRNA induction over basal level” value in series [4] (6 hr post pilocarpine injection) is given as “over 100 fold”. The “peak PKR2 mRNA induction over basal level” value in series [5] (CA1/CA2, 6 hr post pilocarpine injection) is recorded as “about 7 fold”.

B1: PK2: secreted peptide ligand of G-protein coupled receptors PKR1 and PKR2 (protein, UniProt Q9HC23 28-129, looked up)
Prokineticin-2: AVITGACDKDSQCGGGMCCAVSIWVKSIRICTPMGKLGDSCHPLTRKNNFGNGRQERRKRKRSKRKKEVPFFGRRMHHTCPCLPGLACLRTSFNRFICLAQK
B1: in series [7], the “infarct volume versus saline” value is given as “significantly increased overall average infarct volume”. In addition, the “maximum inhibition of GABA-evoked currents” value in series [8] is 75 % of normalized baseline. Also, the “duration of inhibitory response in locomotor running wheel activity” value in series [9] was 3 to 5 h.
